# Assay results as given in patent US11649215B2, “Compositions and methods for the treatment of oral infectious diseases” (Cellix Bio Private Limited, priority 2016, dated 2023).
# “Also recorded” adds a separate entry of the source. Like-named read-outs stand apart in the source and are kept apart here.
# Legend:
# Candida Species = test: MIC against the Candida Species; type: cell-based; conditions: conversion of 0.45 μmoles/ml, read-out: MIC (corresponding mass concentration)
# Description: Linoleic acid is GRAS listed long chain fatty acid. […] The minimum inhibitory concentration for linoleic acid against Porphyromonas gingivalis was 9 to 78 mcg/ml.
# [1] = tested on: various oral pathogenic microorganisms; conditions: cited from earlier work; for antimicrobial activity among the long-chain fatty acids: comparison among long-chain fatty acids
Structure (SMILES),MIC (Candida Species) [µg/mL],bactericidal concentration [1] [µg/mL],antimicrobial activity among the long-chain fatty acids [1],"antimicrobial activity against oral microorganisms ([1]; in vitro, incl. S. mutans, A. actinomycetemcomitans, C. albicans, P. gingivalis, F. nucleatum, S. gordonii)",bactericidal concentration ([1]; n-6 fatty acids GLA) [µg/mL]
CCCCC/C=C\C/C=C\CCCCCCCC(=O)O [Linoleic acid],0.13,25,greatest antimicrobial activity,,
CCCCC/C=C\C/C=C\C/C=C\C/C=C\CCCC(=O)O [arachidonic acid],,,greatest antimicrobial activity,,
CCCCCC/C=C\CCCCCCCC(=O)O [palmitoleic acid],,,greatest antimicrobial activity,,
CCCCCCCCCCCCCCCC(=O)O [palmitic acid],,,greatest antimicrobial activity,,
"CCCCC/C=C\C/C=C\C/C=C\CCCCC(=O)O [GLA, gamma linoleic acid]",,,greatest antimicrobial activity,significant anti-microbial activity; also recorded: antimicrobial activities,25
